{"source": "patent US20170119806A1", "about": "“[…] LACTONE DERIVATIVES AND METHODS OF MAKING AND USING THEREOF” (OHIO STATE INNOVATION FOUNDATION, priority 2014, published 2017)", "key": {"human primary NK cells": {"tested_on": "human primary NK cells", "assay": "IFN-γ production by NK cells (intracellular flow cytometry, ELISA)", "assay_type": "cell-based", "settings": "10 μM PL-C, 18 h", "protocol": "(A) Chemical structure of PL-C (phyllanthusmin C, 4), (9) Healthy donor PBMCs (left panel) or enriched NK cells (right panel) were treated with DMSO vehicle control or 10 μM PL-C for 18 h in the presence of […] (10 ng/mL) or IL-15 (100 ng/mL). The cells were harvested and analyzed by intracellular flow cytometry to determine the frequency of IFN-γ^+ cells in CD56^+CD3^− NK cells (n=8 for PBMC and n=5 for enriched NK). (C) Highly purified (≧99.5%) human primary NK cells were treated with 10 μM PL-C for 18 h to determine the levels of IFN-γ secretion by ELISA. IFN-γ secretion from treatment with PL-C alone (left panel) or in combination with IL-12 (10 ng/mL, middle panel) or IL-15 (100 ng/mL, right panel) is shown. (D) Cells were treated as described in (C) and harvested at 12 h, IFNG mRNA expression was assessed by real-time RT-PCR, and the relative IFNG mRNA expression of each treatment was normalized to untreated vehicle control in the same donor. Data are shown as mean±SEM (n=6 in each treatment; error bars represent SEM). *p<0.05, **p<0.01, which denote statistical comparison between the two marked treatment groups (B-D). (E) Highly purified (≧99,5%) primary human NK cells were treated with 10 μM. PL-C in combination with various concentrations of IL-12 (10, 1, and 0.1 ng/mL) or IL-15 (100, 10, and 1 ng/mL) for 24 h to determine the levels of IFN-γ secretion. Representative data from one of three donors with the similar data are shown. *p<0.05, **p<0.01, which denote statistical comparison between the two marked treatment groups and are calculated from data of all tested donors. Error bars represent SD. […]\nIsolation of PBMCs and NK cells. […] The purity of enriched NK cells was ≧80% assessed by flow cytometric analysis after staining with CD56-allophycocyanin and CD3-FITC Abs (BD Bio-sciences, San Jose, Calif.). […] The purity of magnetic bead-purified NK cells was ≧99.5%, as determined by the aforementioned flow cytometric analysis. […]"}, "NF-κB p65": {"tested_on": "NF-κB p65", "assay": "Immunoblotting of p65 and p-p65 in NK cells", "assay_type": "cell-based, human", "settings": "5 and 10 μM PL-C, 18 h", "protocol": "(A) Purified primary human NK cells were treated with 5 and 10 μM PL-C for 18 h. The cells were harvested and lysed for immunoblotting using p65 and p-p65 Abs. β-Actin immunoblotting was included as the internal control. Data shown are for treatment with PL-C alone (top panel) or in combination with IL-12 (10 ng/mL) (middle panel) or IL-15 (100 ng/mL) (bottom panel) and are the representative plots of four donors with similar results. Numbers under each lane represent quantification of p-p65 or p65 via densitometry, after normalizing to β-actin. (B) NKL cells were treated, and data are presented as described in (A). Data from one of three independent experiments with similar results are shown. (C) Purified primary human NK (left panel) or NKL cells (right panel) were cotreated with 10 μM PL-C and IL-12 (10 ng/mL) in the presence or absence of the NF-κB inhibitor TPCK (10 μM) for 18 h. Supernatants were assayed for IFN-γ secretion by ELISA (top panel), and cells were harvested and lysed for immunoblotting of p-p65 (bottom panel). Representative data from one of three donors with the similar data (left panel) and the summary of three independent experiments with similar results (right panel) are shown. **p<0.01. Error bars represent SD.\nImmunoblotting. Immunoblotting was performed as described previously (Yu J et al. Immunity 2006, 24, 575-590; Yu J et al. Blood 2010, 115, 274-281). […]"}, "TLR1 or TLR6": {"tested_on": "TLR1 or TLR6", "assay": "TLR activation assessment (NF-κB luciferase reporter in HEK293T)", "assay_type": "cell-based, human", "settings": "various concentrations of PL-C, 24 h"}, "[1]": {"tested_on": "CCD-112CoN normal human colon cells", "assay": "Cytotoxicity against CCD-112CoN cells", "text": "Following a previous procedure (Still P C et al. J. Nat. Prod. 2013, 76, 243-249) and the method for screening cytotoxicity towards HT-29 cells mentioned above, the cytotoxicity of the samples was screened against CCD-112CoN normal human colon cells."}}, "note": "pIC50: −log10 of the molar value. Entries after “also recorded” stand apart in the source; their conditions may differ.", "data": [{"smiles": "COc1cc2c(OC3OCC(O)C(O)C3O)c3c(c(-c4ccc5c(c4)OCO5)c2cc1OC)C(=O)OC3", "note": "(stereo not drawn) [Compound 4, Phyllanthusmin C]", "values": [{"measurement": "IFN-γ production/secretion by human NK cells", "setting": "human primary NK cells; alone or with IL-12 (10 ng/mL) or IL-15 (100 ng/mL), listed as PL-C", "result": "enhanced IFN-γ production; also recorded: can induce NK cell IFN-γ production; also recorded: induced NK cell secretion of IFN-γ even in the absence IL-12 or IL-15; also recorded: enhanced NK cell IFN-γ secretion in the presence of IL-12 or IL-15 stimulation; also recorded: enhanced by PL-C"}, {"measurement": "IFN-γ production induced by Pam3CSK4 or FSL-1 in NK cells", "setting": "human primary NK cells; ligands 1 μg/mL, IL-12 (10 ng/mL)", "result": "enhanced IFN-γ production"}, {"measurement": "NF-κB p65 phosphorylation in primary NK and NKL cells", "setting": "NF-κB p65", "result": "increased"}, {"measurement": "NF-κB luciferase reporter activity in TLR1- or TLR6-transfected 293T cells", "setting": "TLR1 or TLR6", "result": "induce luciferase reporter activity in a dose-dependent fashion"}, {"measurement": "cytotoxicity toward CCD-112CoN human normal colon cells (in words)", "setting": "[1]", "result": "non-cytotoxic"}, {"measurement": "pIC50", "setting": "[1]; read-out: IC50 values toward the CCD-112 CoN cells, Table 6", "result": "< 4.00"}]}]}
